From ChEMBL document CHEMBL1201862, “PubChem BioAssay data set” (2004)
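Each compound was tested at five concentrations against cells in 96-well plates for 48 hours. GI50 is the concentration that inhibits growth by half.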 Activity calls are given as the source filed them. Cut-off read from the data, not from the text of the source: active = GI50 up to about 1.1 µM and inactive = higher.

Key:
Assay in all cases: NCI-60 cell line screen, 48 h
[1] = tested on: DLD-1
[2] = tested on: DMS-273
[3] = tested on: HOP-18
[4] = tested on: LXFL 529
[5] = tested on: M19-MEL
[6] = tested on: RXF 631
[7] = tested on: SNB-78
[8] = tested on: XF498
[9] = tested on: DMS-114

| Compound | GI50 [1] | GI50 [2] | GI50 [3] | GI50 [4] | GI50 [5] | GI50 [6] | GI50 [7] | GI50 [8] | GI50 [9] |
| --- | --- | --- | --- | --- | --- | --- | --- | --- | --- |
| O=C1/C(=C/c2ccccc2)CN(C(=O)/C=C/c2ccccc2)C/C1=C\c1ccccc1 | 4.14 µM (inactive) | 4.74 µM (inactive) | 33.7 µM (inactive) | 8.05 µM (inactive) | 5.22 µM (inactive) | 27.1 µM (inactive) | 22 µM (inactive) | 18.6 µM (inactive) | – |
| Cc1ccc2nc(NC(=O)C(=O)CC(=O)c3cccc4ccccc34)sc2c1 | 49.7 µM (inactive) | 40.4 µM (inactive) | 24.7 µM (inactive) | 45.6 µM (inactive) | 35.5 µM (inactive) | – | 32.9 µM (inactive) | 45.9 µM (inactive) | – |
| O=C(C#Cc1ccccc1)Nc1ccccc1CC(c1c[nH]c2ccccc12)c1c[nH]c2ccccc12 | 17 µM (inactive) | 11.3 µM (inactive) | – | 6.35 µM (inactive) | 16.4 µM (inactive) | 21.3 µM (inactive) | 11.5 µM (inactive) | 29.4 µM (inactive) | – |
| O=C1c2cccc3cc([N+](=O)[O-])cc(c23)C(=O)N1CCCN1CCN(CCCN2C(=O)c3cccc4cc([N+](=O)[O-])cc(c34)C2=O)CC1 | 0.0453 µM (active) | – | 1.77 µM (inactive) | 0.0349 µM (active) | 0.0931 µM (active) | 0.0344 µM (active) | 0.303 µM (active) | 0.0966 µM (active) | – |
| O=C1CCC(=O)C12CCc1cccc(O)c12 | > 100 µM (inactive) | > 100 µM (inactive) | > 100 µM (inactive) | > 100 µM (inactive) | > 100 µM (inactive) | – | > 100 µM (inactive) | > 100 µM (inactive) | > 100 µM (inactive) |
| CCCOC(=O)C1CCC(=O)N1C(=O)C(C)Cl (stereo not drawn) | > 100 µM (inactive) | > 100 µM (inactive) | > 100 µM (inactive) | > 100 µM (inactive) | > 100 µM (inactive) | – | > 100 µM (inactive) | > 100 µM (inactive) | > 100 µM (inactive) |
| O=C(O)CNCc1c2ccccc2[n+]([O-])c2ccccc12 | 39.4 µM (inactive) | 46.7 µM (inactive) | 52.7 µM (inactive) | 27.7 µM (inactive) | 85.7 µM (inactive) | 83.4 µM (inactive) | 92.3 µM (inactive) | – | 25.9 µM (inactive) |
| CC1CN1P1(N2CC2C)=NP(N2CC2C)(N2CC2C)=NP(N2CC2C)(N2CC2C)=N1 (stereo not drawn) | > 50 µM (inactive) | > 50 µM (inactive) | > 50 µM (inactive) | > 50 µM (inactive) | > 50 µM (inactive) | – | – | > 50 µM (inactive) | – |
| COc1ccc(OC)c(NC(=O)C2=C(C)NC(C)=C(C(=O)Nc3cc(OC)ccc3OC)C2c2ccco2)c1 | > 100 µM (inactive) | 95.9 µM (inactive) | – | > 100 µM (inactive) | > 100 µM (inactive) | – | > 100 µM (inactive) | > 100 µM (inactive) | > 100 µM (inactive) |
| COc1ccc(OC)c(/C=C2\CCc3ccccc3C2=O)c1 | 5.36 µM (inactive) | 1.12 µM (active) | 4.85 µM (inactive) | 6.05 µM (inactive) | 3.72 µM (inactive) | – | – | 1.24 µM (inactive) | 1.92 µM (inactive) |
| COC(=O)C(=O)C(C#N)c1cccc(Cl)c1 (stereo not drawn) | > 100 µM (inactive) | > 100 µM (inactive) | > 100 µM (inactive) | > 100 µM (inactive) | > 100 µM (inactive) | – | > 100 µM (inactive) | > 100 µM (inactive) | – |
| C/C=C(\C)C(=O)N1c2ccccc2CC1c1c(C)[nH]c2ccccc12 (stereo not drawn) | 8.18 µM (inactive) | 39.1 µM (inactive) | – | 72.9 µM (inactive) | 61.7 µM (inactive) | > 100 µM (inactive) | 86.5 µM (inactive) | – | – |
| CCOC(=O)c1c[nH]c2c(ccc3ncccc32)c1=O | > 100 µM (inactive) | > 100 µM (inactive) | > 100 µM (inactive) | > 100 µM (inactive) | > 100 µM (inactive) | – | > 100 µM (inactive) | – | > 100 µM (inactive) |
| C[C@]12CC[C@H](O)CC1=CC[C@@H]1C2CC[C@]2(C)C(=O)N(N)C(=O)CC12 (stereo partly drawn) | > 100 µM (inactive) | > 100 µM (inactive) | > 100 µM (inactive) | > 100 µM (inactive) | > 100 µM (inactive) | > 100 µM (inactive) | > 100 µM (inactive) | > 100 µM (inactive) | – |
| CCOc1ccc(O)cc1[P+](c1ccccc1)(c1ccccc1)c1ccccc1 | 4.14 µM (inactive) | 2.16 µM (inactive) | 2.91 µM (inactive) | 1.37 µM (inactive) | 3.05 µM (inactive) | – | 4.15 µM (inactive) | 1.16 µM (inactive) | – |
| N/C(=C\c1ccc(OCc2ccccc2)c(OCc2ccccc2)c1[N+](=O)[O-])C(=O)O | > 100 µM (inactive) | > 100 µM (inactive) | > 100 µM (inactive) | > 100 µM (inactive) | > 100 µM (inactive) | – | > 100 µM (inactive) | – | – |
| COc1ccc(/C(Cl)=C/c2cc(OC)ccc2OC)cc1 | 79.4 µM (inactive) | 35.2 µM (inactive) | > 100 µM (inactive) | 72.1 µM (inactive) | 80 µM (inactive) | – | 79.6 µM (inactive) | 71.3 µM (inactive) | 42.3 µM (inactive) |
| COc1cc2c3c(c1OCc1ccccc1)NCCC3NCC2 (stereo not drawn) | > 100 µM (inactive) | > 100 µM (inactive) | – | > 100 µM (inactive) | > 100 µM (inactive) | > 100 µM (inactive) | > 100 µM (inactive) | > 100 µM (inactive) | > 100 µM (inactive) |
| CCCCN(CCCC)CC(C(=O)Nc1ccc([N+](=O)[O-])cc1[N+](=O)[O-])/C(C)=N\NC(=S)NN (stereo not drawn) | > 100 µM (inactive) | > 100 µM (inactive) | – | > 100 µM (inactive) | > 100 µM (inactive) | – | – | > 100 µM (inactive) | > 100 µM (inactive) |
| CN(C)c1nc(N(C)C)nc(N(C)CN(C)c2nc(N(C)C)nc(N(C)C)n2)n1 | > 100 µM (inactive) | > 100 µM (inactive) | > 100 µM (inactive) | 77.6 µM (inactive) | > 100 µM (inactive) | – | > 100 µM (inactive) | – | > 100 µM (inactive) |
| O=C1/C(=C/c2ccc3c(c2)OCO3)CCC1CN1CCOCC1 (stereo not drawn) | 2.39 µM (inactive) | 8.79 µM (inactive) | 17.3 µM (inactive) | 2.65 µM (inactive) | 4.53 µM (inactive) | 15.8 µM (inactive) | 9.66 µM (inactive) | – | 5.83 µM (inactive) |
| Cc1ccc(O)c(/N=N/c2ccc(S(=O)(=O)O)cc2)n1 | > 100 µM (inactive) | > 100 µM (inactive) | > 100 µM (inactive) | > 100 µM (inactive) | > 100 µM (inactive) | – | – | – | > 100 µM (inactive) |
| COC(=O)CC(C(C(=O)OC)C(=O)OC)N1C(=O)OC(c2ccccc2)C1c1ccccc1 (stereo not drawn) | 68.5 µM (inactive) | > 100 µM (inactive) | > 100 µM (inactive) | > 100 µM (inactive) | > 100 µM (inactive) | – | – | – | 45.6 µM (inactive) |
| CC1=C(N(C)C)C(=O)c2nc3n(c2C1=O)CCC3OC(N)=O (stereo not drawn) | 16.2 µM (inactive) | 15.8 µM (inactive) | 17.7 µM (inactive) | – | 1.7 µM (inactive) | – | 23 µM (inactive) | 23.9 µM (inactive) | 16.1 µM (inactive) |
| Cc1c(O)c(=O)ccn1CCN | > 100 µM (inactive) | > 100 µM (inactive) | > 100 µM (inactive) | > 100 µM (inactive) | > 100 µM (inactive) | > 100 µM (inactive) | > 100 µM (inactive) | – | > 100 µM (inactive) |
